# Read-outs that look alike come from different tables or passages of the source.
# Columns and labels:
# Enterobacter aerogenes [1] = test: Antimicrobial well method, zone of inhibition; assay type: cell-based; settings: Klebsiella aerogenes
# Procedure: (§1) Antimicrobial activity was carried out as described previously. Briefly, 20 mL of sterile Mueller Hinton agar (MHA) was poured in the petri plates and kept for solidification. After solidification, the test cultures were swabbed on the top of the media and kept for 10 min to dry. The required concentration (1 mg/well) of synthesized compounds 5a–l was added to each well and left for 30 min at RT for compound diffusion. Ketoconazole (fungi) and streptomycin (bacteria) used for positive controls. The zone of inhibition was recorded in mm and the experiment was repeated twice.
# Klebsiella pneumoniae [2] = test: Antimicrobial well method, zone of inhibition; assay type: cell-based
# Procedure: as §1
# Micrococcus luteus [3] = test: Antimicrobial well method, zone of inhibition; assay type: cell-based
# Procedure: as §1
# Proteus vulgaris [4] = test: Antimicrobial well method, zone of inhibition; assay type: cell-based
# Procedure: as §1
# Salmonella paratyphi-B [5] = test: Antimicrobial well method, zone of inhibition; assay type: cell-based
# Procedure: as §1
# Salmonella typhimurium [6] = test: Antimicrobial well method, zone of inhibition; assay type: cell-based; settings: Salmonella enterica
# Procedure: as §1
# [7] = system: Staphylococcus aureus-MRSA; test: Antimicrobial well method, zone of inhibition; assay type: cell-based
# Procedure: as §1
# Staphylococcus aureus [8] = test: Antimicrobial well method, zone of inhibition; assay type: cell-based
# Procedure: as §1
# [9] = system: Staphylococcus epidermidis; test: Antimicrobial well method, zone of inhibition; assay type: cell-based
# Procedure: as §1
# Shigella flexneri [10] = test: Antimicrobial well method, zone of inhibition; assay type: cell-based
# Procedure: as §1
# Enterobacter aerogenes [11] = test: Minimum inhibitory concentration (MIC); assay type: cell-based; settings: Klebsiella aerogenes; Enterobacter aerogenes; read-out: Minimum inhibitory concentration
# Procedure: (§2) The MIC experiment was carried out according to the standard reference methods. Briefly, the required concentrations of synthesized compounds 5a–l were dissolved in DMSO (Dimethylsulfoxide) in concentrations of 500 µg/mL, 250 µg/mL, 125 µg/mL, 62.5 µg/mL, 31.25 µg/mL, 15.6 µg/mL, and […]. An inoculum of 100 µL from each well (96-well plate) was inoculated. For the positive control, ketoconazole (fungi) and streptomycin (bacteria) was used. The MIC values for the tested bacteria were identified as the lowest inhibiting concentration of compound on the agar plate in visual growth.
# Klebsiella pneumoniae [12] = test: Minimum inhibitory concentration (MIC); assay type: cell-based; settings: read-out: Minimum inhibitory concentration
# Procedure: as §2
# Micrococcus luteus [13] = test: Minimum inhibitory concentration (MIC); assay type: cell-based; settings: read-out: Minimum inhibitory concentration
# Procedure: as §2
# Proteus vulgaris [14] = test: Minimum inhibitory concentration (MIC); assay type: cell-based; settings: read-out: Minimum inhibitory concentration
# Procedure: as §2
# Salmonella paratyphi-B [15] = test: Minimum inhibitory concentration (MIC); assay type: cell-based
# Procedure: as §2
# Salmonella typhimurium [16] = test: Minimum inhibitory concentration (MIC); assay type: cell-based; settings: Salmonella enterica, read-out: Minimum inhibitory concentration
# Procedure: as §2
# Shigella flexneri [17] = test: Minimum inhibitory concentration (MIC); assay type: cell-based
# Procedure: as §2
# [18] = system: Staphylococcus aureus-MRSA; test: Minimum inhibitory concentration (MIC); assay type: cell-based; settings: read-out: Minimum inhibitory concentration
# Procedure: as §2
# Staphylococcus aureus [19] = test: Minimum inhibitory concentration (MIC); assay type: cell-based; settings: read-out: Minimum inhibitory concentration
# Procedure: as §2
# [20] = system: Staphylococcus epidermidis; test: Minimum inhibitory concentration (MIC); assay type: cell-based; settings: read-out: Minimum inhibitory concentration
# Procedure: as §2
# Candida albicans = test: Antimicrobial well method, zone of inhibition; assay type: cell-based; settings: 1 mg/well
# Procedure: as §1
# Malassezia pachydermatis = test: Antimicrobial well method, zone of inhibition; assay type: cell-based
# Procedure: as §1
# A549 cells = test: Cytotoxicity, aqueous one solution reagent; assay type: cell-based; settings: for IC50: 24 h treatment, read-out: IC50 against A549
# Procedure: (§3) The cytotoxic study was carried out as reported previously. Briefly, IMR90, HepG-2, and A549 cells were grown in DMEM (Dulbecco’s Modified Eagle Medium) that contained 10% fetal bovine serum and 1% antibiotics. A total of 15 × 10^3 cells/well were seeded in 96-well plates and incubated under humidified conditions. Cells were treated with varying concentrations of synthesized triazoles for 24 h. After a 24 h treatment, 20 µL aqueous one solution reagent was added to each well and incubated for 3–4 h under a humidified condition. For IMR90 cells, MTT (MTT = 3-(4,5-dimethyl-2-thiazolyl)-2,5-diphenyl-2H-tetrazolium bromide) (5 mg/mL) was added and incubated for 3–4 h in the dark. After incubation, 100 µL of a 10% SDS (Sodium Dodecyl Sulfate) solution (0.01% HCl) was added to each well. The data was taken using an ELISA (enzyme-linked immunosorbent assay) reader at the absorbance of 490 nm for HepG-2 and A549 cells and 570 nm for IMR90 cells. The cell death was calculated using the following formula: Inhibition (%) = ((A − B)/A) × 100 (A—control group, B—treated group).
# HepG-2 cells = test: Cytotoxicity, aqueous one solution reagent; assay type: cell-based; settings: for IC50: read-out: IC50 against HepG-2
# Procedure: as §3
# IMR90 cells = test: Cytotoxicity on normal cells, MTT; assay type: cell-based; settings: IMR-90, human normal IMR90 cells, 24 h treatment, read-out: IC50 against IMR90
# Procedure: as §3
# [21] = Homo sapiens, HepG2, 24 h treatment
SMILES,zone of inhibition at 1 mg/well (Enterobacter aerogenes [1]) [mm],zone of inhibition at 1 mg/well (Klebsiella pneumoniae [2]) [mm],zone of inhibition at 1 mg/well (Micrococcus luteus [3]) [mm],zone of inhibition at 1 mg/well (Proteus vulgaris [4]) [mm],zone of inhibition at 1 mg/well (Salmonella paratyphi-B [5]) [mm],zone of inhibition at 1 mg/well (Salmonella typhimurium [6]) [mm],zone of inhibition at 1 mg/well [7] [mm],zone of inhibition at 1 mg/well (Staphylococcus aureus [8]) [mm],zone of inhibition at 1 mg/well [9] [mm],melting point [°C],zone of inhibition at 1 mg/well (Shigella flexneri [10]) [mm],MIC (Enterobacter aerogenes [11]) [µg/mL],MIC (Klebsiella pneumoniae [12]) [µg/mL],MIC (Micrococcus luteus [13]) [µg/mL],MIC (Salmonella paratyphi-B [15]) [µg/mL],MIC (Shigella flexneri [17]) [µg/mL],MIC ([18]; Staphylococcus aureus-MRSA) [µg/mL],MIC (Staphylococcus aureus [19]) [µg/mL],MIC [20] [µg/mL],zone of inhibition at 1 mg/well (Malassezia pachydermatis) [mm],also measured
"C[C@@H]([C@@H](c1ccccc1)n1cc(CC2(O)CCCCC2)nn1)N1CCCC1 [5b, (1R,2S)-1-((1-(1-Phenyl-2-(pyrrolidin-1-yl)propyl)-1H-1,2,3-triazol-4-yl)methyl) cyclohexanol]",12,10,13,12,11,11,12,10,10,137 to 138,,,,,,,,,,,
"C[C@@H]([C@@H](c1ccccc1)n1cc(COC(=O)C=Cc2ccccc2)nn1)N1CCCC1 [5c, (1R,2S)-(1-(1-Phenyl-2-(pyrrolidin-1-yl)propyl)-1H-1,2,3-triazol-4-yl)methyl cinnamate]",14,12,16,10,14,12,18,16,15,140 to 141,13,250,500,125,250,250,125,125,250,,MIC (Proteus vulgaris [14]): 500 µg/mL; MIC (Salmonella typhimurium [16]; Salmonella typhimurium): 500 µg/mL
"C[C@@H]([C@@H](c1ccccc1)n1cc(COC(=O)c2ccccc2)nn1)N1CCCC1 [5d, (1R,2S)-(1-(1-Phenyl-2-(pyrrolidin-1-yl)propyl)-1H-1,2,3-triazol-4-yl)methyl benzoate]",10,,19,,14,12,16,13,13,129 to 130,13,500,,62.5,250,250,125,250,250,10,zone of inhibition (Candida albicans): 13 mm; MIC (Salmonella typhimurium [16]; Salmonella typhimurium): 500 µg/mL
"COc1ccc(Br)c(C(=O)OCc2cn(C(c3ccccc3)C(C)N3CCCC3)nn2)c1 [5e, (1R,2S)-(1-(1-Phenyl-2-(pyrrolidin-1-yl)propyl)-1H-1,2,3-triazol-4-yl)methyl-2-bromo-5-methoxy benzoate]",10,10,15,13,10,12,10,12,10,,15,,,,,,,,,14,zone of inhibition (Candida albicans): 15 mm; cytotoxic / anticancer activity against A549 cells (A549 cells): promising anticancer activity; IC50 (A549 cells; Homo sapiens): 130 ± 0.65 µM; cytotoxic activity against HepG-2 cells (HepG-2 cells): moderate activity; IC50 (HepG-2 cells; [21]): 164 ± 2.01 µM; IC50 (IMR90 cells): > 250 µM
"CC([C@@H](c1ccccc1)n1cc(CN(C)[C@@H](C)Cc2ccccc2)nn1)N1CCCC1 (stereo partly drawn) [5f, (1R,2S)-N-Methyl-1-phenyl-N-((1-(1-phenyl-2-(pyrrolidin-1-yl)propyl)-1H-1,2,3-triazol-4-yl)methyl)propan-2-amine]",,18,13,,14,,15,,17,118 to 119,19,,125,250,250,62.5,250,,125,12,
"CC(C(c1ccccc1)n1cc(COC(=O)c2ccc(C(C)(C)C)cc2)nn1)N1CCCC1 [5i, (1R,2S)-(1-(1-Phenyl-2-(pyrrolidin-1-yl)propyl)-1H-1,2,3-triazol-4-yl)methyl 4-tert-butyl benzoate]",14,12,16,,12,,14,16,11,,14,250,500,125,500,250,250,125,500,10,zone of inhibition (Candida albicans): 12 mm; cytotoxic / anticancer activity against A549 cells (A549 cells): promising anticancer activity; IC50 (A549 cells; Homo sapiens): 134 ± 1.05 µM; cytotoxic activity against HepG-2 cells (HepG-2 cells): moderate activity; IC50 (HepG-2 cells; [21]): 197 ± 2.34 µM; IC50 (IMR90 cells): > 250 µM
"CCC(C(=O)OCc1cn(C(c2ccccc2)C(C)N2CCCC2)nn1)c1ccccc1 [5l, (1R,2S)-((1-(1-Phenyl-2-(pyrrolidin-1-yl)propyl)-1H-1,2,3-triazol-4-yl)methyl 2-phenylbutanoate]",,,,,,,,,,127 to 129,,,,,,,,,,12,
"N.N.[Cl][Pt][Cl] [Cisplatin, reference compound]",,,,,,,,,,,,,,,,,,,,,IC50 (A549 cells): 16.4 ± 3.19 µM; IC50 (HepG-2 cells; 24 h treatment): 22.1 ± 3.08 µM
"CC(=O)N1CCN(c2ccc(OCC3COC(Cn4ccnc4)(c4ccc(Cl)cc4Cl)O3)cc2)CC1 (stereo not shown) [Ketoconazole, reference compound]",,,,,,,,,,,,,,,,,,,,26,zone of inhibition (Candida albicans): 28 mm
"[H]/N=C(/N)N[C@H]1[C@H](O)[C@@H](O)[C@H](O[C@@H]2O[C@@H](C)[C@](O)(C=O)[C@H]2O[C@@H]2O[C@@H](CO)[C@H](O)[C@@H](O)[C@@H]2NC)[C@@H](N/C(N)=N\[H])[C@@H]1O [Streptomycin, reference compound]",22,20,26,30,18,24,30,14,26,,30,25,25,6.25,30,6.25,,6.25,25,,"MIC (Proteus vulgaris [14]): 6.25 µg/mL; MIC (Salmonella typhimurium [16]; TYPHIMURIUM): 6.25 µg/mL; MIC ([18]; Staphylococcus, MRSA): 6.25 µg/mL"
